Source: US4455146A, “Novel plasters” (Hisamitsu Pharmaceutical Co., Ltd., priority 1979, dated 1984)

Assay: clinical
Conditions: for Fa at 4 h / Fa at 8 h / Percent absorption: human, in vivo, topical or ocular; for Fa at 4 h / Fa at 8 h: Percent absorption
Experimental: An experiment was carried out on 7 subjects who were healthy male adults, 25-39 years old and weighing 50-63 kg each, as mentioned hereinbelow.
The plasters and adhesive tapes so attached to the skin sites were peeled 0 hour, 4 hours and 8 hours after the application and then inserted into 15 ml test tubes, respectively, after which the test tubes were each incorporated with 5 ml of acetone, shaken lightly and allowed to stand overnight at room temperature. […] After the distillation-off of an excess of the diazomethane and ether, the residue so methylated was dissolved in 1 ml of a solution of the internal reference substance in acetone and meansured for absorbability and amount absorbed by means of GC-MF under the conditions as shown in Table 10.
The absorbency and amount absorbed were calculated from the following formulae: [formula]

[1] = 1% plaster, […] 1.4 cm, 4 hr, mean ± S.E.
[2] = 1% plaster, […] 1.4 cm, 8 hr, mean ± S.E.
[3] = 3% plaster, […] 1.4 cm, 4 hr, mean ± S.E.
[4] = 3% plaster, […] 1.4 cm, 8 hr, mean ± S.E.

| Amount absorption [1] [µg] | Amount absorption [2] [µg] | Amount absorption [3] [µg] | Amount absorption [4] [µg] | Fa at 4 h [1] [%] | Fa at 8 h [2] [%] | Fa at 4 h [3] [%] | Fa at 8 h [4] [%] | Percent absorption (4 h) [%] | Percent absorption (8 h) [%] | Fa at 4 h [%] | Fa at 8 h [%] | Structure (SMILES) |
| --- | --- | --- | --- | --- | --- | --- | --- | --- | --- | --- | --- | --- |
| 2.30 | 4.92 ± 1.16 | 16.67 | 20.21 ± 2.13 | 1.27 | 2.71 ± 0.64 | 3.52 | 4.28 ± 0.45 |  |  |  |  | COc1ccc2c(c1)c(CC(=O)O)c(C)n2C(=O)c1ccc(Cl)cc1 [Indomethacin] |
| 9.05 | 10.70 ± 1.61 | 41.19 | 49.56 ± 6.92 |  |  |  |  | 6.98 | 8.40 ± 1.17 | 5.53 | 6.54 ± 0.99 | CC(C(=O)O)c1ccc(-c2ccccc2)c(F)c1 (stereo not shown) [Flurbiprofen] |
